Test results from PubChem BioAssay (NCI).
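In this assay, cells in 96-well plates receive the compound at five concentrations for 48 hours. Endpoints are linearly interpolated between the surrounding concentrations. TGI: total growth inhibition.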

Legend:
Experiment in all cases: NCI anticancer screen, dose series, 48 h
HCT-116 colon = test system: HCT-116 colon
HL-60(TB) leukemia = test system: HL-60(TB) leukemia
HOP-62 NSCLC = test system: HOP-62 NSCLC
NCI-H226 lung = test system: NCI-H226 lung
DMS 114 small cell lung = test system: DMS 114 small cell lung
RPMI-8226 leukemia = test system: RPMI-8226 leukemia
HCC-2998 colon = test system: HCC-2998 colon
NCI-H460 lung = test system: NCI-H460 lung
OVCAR-4 ovarian = test system: OVCAR-4 ovarian
HOP-18 NSCLC = test system: HOP-18 NSCLC
UO-31 renal = test system: UO-31 renal
K-562 leukemia = test system: K-562 leukemia
UACC-62 melanoma = test system: UACC-62 melanoma
HCT-15 colon = test system: HCT-15 colon
OVCAR-5 ovarian = test system: OVCAR-5 ovarian
A549 NSCLC = test system: A549 NSCLC
DMS 273 small cell lung = test system: DMS 273 small cell lung
NCI-H23 lung = test system: NCI-H23 lung
SN12C renal = test system: SN12C renal
SK-MEL-5 melanoma = test system: SK-MEL-5 melanoma
SF-539 CNS = test system: SF-539 CNS
MALME-3M melanoma = test system: MALME-3M melanoma
CCRF-CEM leukemia = test system: CCRF-CEM leukemia
CAKI-1 renal = test system: CAKI-1 renal
M14 melanoma = test system: M14 melanoma
786-0 renal = test system: 786-0 renal
HOP-92 NSCLC = test system: HOP-92 NSCLC
SNB-19 CNS = test system: SNB-19 CNS
SF-268 CNS = test system: SF-268 CNS
NCI-H522 lung = test system: NCI-H522 lung
LOX IMVI melanoma = test system: LOX IMVI melanoma
A498 renal = test system: A498 renal
IGROV1 ovarian = test system: IGROV1 ovarian
LXFL 529 NSCLC = test system: LXFL 529 NSCLC
OVCAR-3 ovarian = test system: OVCAR-3 ovarian
KM12 colon = test system: KM12 colon
TK-10 renal = test system: TK-10 renal
U251 CNS = test system: U251 CNS
ACHN renal = test system: ACHN renal
SR leukemia = test system: SR leukemia
SK-MEL-2 melanoma = test system: SK-MEL-2 melanoma
M19-MEL melanoma = test system: M19-MEL melanoma
DLD-1 colon = test system: DLD-1 colon
XF 498 CNS = test system: XF 498 CNS
OVCAR-8 ovarian = test system: OVCAR-8 ovarian
COLO 205 colon = test system: COLO 205 colon
MOLT-4 leukemia = test system: MOLT-4 leukemia
UACC-257 melanoma = test system: UACC-257 melanoma
SK-MEL-28 melanoma = test system: SK-MEL-28 melanoma
SW-620 colon = test system: SW-620 colon
EKVX NSCLC = test system: EKVX NSCLC
KM20L2 colon = test system: KM20L2 colon
SNB-75 CNS = test system: SNB-75 CNS

Molecule `Cc1ccc(N2C(=O)CS/C2=C(\C#N)c2nc3ccccc3[nH]2)cc1` has a TGI (HCT-116 colon) greater than 100 µM, a TGI (HL-60(TB) leukemia) greater than 100 µM and a TGI (HOP-62 NSCLC) greater than 100 µM. It also gave a TGI (NCI-H226 lung) greater than 100 µM, a TGI (DMS 114 small cell lung) greater than 100 µM and a TGI (RPMI-8226 leukemia) greater than 100 µM. It also gave a TGI (HCC-2998 colon) greater than 100 µM, a TGI (NCI-H460 lung) greater than 100 µM and a TGI (OVCAR-4 ovarian) greater than 100 µM. It also gave a TGI (HOP-18 NSCLC) greater than 100 µM, a TGI (UO-31 renal) greater than 100 µM and a TGI (K-562 leukemia) greater than 100 µM. It also gave a TGI (UACC-62 melanoma) of 82.7 µM, a TGI (HCT-15 colon) greater than 100 µM and a TGI (OVCAR-5 ovarian) greater than 100 µM. It also gave a TGI (A549 NSCLC) greater than 100 µM, a TGI (DMS 273 small cell lung) greater than 100 µM and a TGI (NCI-H23 lung) greater than 100 µM. It also gave a TGI (SN12C renal) greater than 100 µM, a TGI (SK-MEL-5 melanoma) greater than 100 µM and a TGI (SF-539 CNS) greater than 100 µM. It also gave a TGI (MALME-3M melanoma) greater than 100 µM, a TGI (CCRF-CEM leukemia) greater than 100 µM and a TGI (CAKI-1 renal) greater than 100 µM. It also gave a TGI (M14 melanoma) greater than 100 µM, a TGI (786-0 renal) greater than 100 µM and a TGI (HOP-92 NSCLC) greater than 100 µM. For the same molecule, the TGI (SNB-19 CNS) was greater than 100 µM, the TGI (SF-268 CNS) was greater than 100 µM and the TGI (NCI-H522 lung) was greater than 100 µM. The TGI (LOX IMVI melanoma) was greater than 100 µM, the TGI (A498 renal) was greater than 100 µM and the TGI (IGROV1 ovarian) was greater than 100 µM. The TGI (LXFL 529 NSCLC) was greater than 100 µM, the TGI (OVCAR-3 ovarian) was greater than 100 µM and the TGI (KM12 colon) was greater than 100 µM. For the same molecule, the TGI (TK-10 renal) was greater than 100 µM, the TGI (U251 CNS) was greater than 100 µM and the TGI (ACHN renal) was greater than 100 µM. The TGI (SR leukemia) was greater than 100 µM, the TGI (SK-MEL-2 melanoma) was greater than 100 µM and the TGI (M19-MEL melanoma) was greater than 100 µM. It also gave a TGI (DLD-1 colon) greater than 100 µM, a TGI (XF 498 CNS) greater than 100 µM and a TGI (OVCAR-8 ovarian) greater than 100 µM. For the same molecule, the TGI (COLO 205 colon) was greater than 100 µM, the TGI (MOLT-4 leukemia) was greater than 100 µM and the TGI (UACC-257 melanoma) was greater than 100 µM. For the same molecule, the TGI (SK-MEL-28 melanoma) was greater than 100 µM, the TGI (SW-620 colon) was greater than 100 µM and the TGI (EKVX NSCLC) was greater than 100 µM. The TGI (KM20L2 colon) was greater than 100 µM and the TGI (SNB-75 CNS) was greater than 100 µM.
